The nature of series [1]: Inhibition of gamma-secretase expressed in african green monkey CV1 cells coexpressing Gal4 DNA-binding/transactivation domain assessed as inhibition of notch processing after 22 hrs by luciferase reporter assay. The series is classed as cell-based. The note with it: CV-1, 22 h. In general terms: A reporter such as luciferase makes a cellular process visible.
Series [2] deals with Gamma-secretase. As to the kind of experiment: Inhibition of gamma-secretase in human SHSY5Y cells expressing Swedish variant of APP K595N/M596L assessed as reduction of amyloid beta 42 formation after 16 hrs by ELISA. The series is classed as cell-based. The note with it: sh-sy5y.
In series [3] the target is Gamma-secretase. As to the kind of experiment: Inhibition of gamma-secretase in human SHSY5Y cells expressing Swedish variant of APP K595N/M596L assessed as reduction of amyloid beta 40 formation after 16 hrs by ELISA. The series is classed as cell-based. Particulars: sh-sy5y.
The subject of the next series is CV-1. As to the kind of experiment: Agonist activity at gamma-secretase expressed in african green monkey CV1 cells coexpressing Gal4 DNA-binding/transactivation domain assessed as increase of notch processing at 10 uM after 22 hrs by luciferase reporter assay. The series is classed as cell-based.
Series [4] in a line: Drug level in rat blood at 30 mg/kg, po after 6 hrs. The series is classed as ADME, organism-based. More on the design: dose 30 mg/kg, route oral. The note with it: read-out: Drug uptake.
Series [5] in a line: Drug level in rat brain at 30 mg/kg, po after 6 hrs. More on the design: dose 30 mg/kg, route oral. The series is classed as ADME, organism-based. Particulars: read-out: Drug uptake.
The next series relates to SH-SY5Y. Put plainly: Cytotoxicity against human SH-SY5Y cells assessed as effect of cell viability at 100 uM after 24 hrs by WST1 assay. The series is classed as cell-based. (Formazan colour is commonly taken as a measure of viable cells.)
The next series deals with Rattus norvegicus. As to the kind of experiment: Antialzheimer activity in rat assessed as reduction of amyloid beta 42 level in brain at 30 mg/kg, po after 6 hrs. The series is classed as functional. The arrangement: scale not given: the % may be the effect or the level left.
A short description of series [6]: Ratio of drug level in brain to blood in rat at 30 mg/kg, po after 6 hrs. The note with it: read-out: BBR. More on the design: dose 30 mg/kg, route oral. The series is classed as ADME, organism-based.
The nature of series [7]: Oral bioavailability in Sprague-Dawley rat at 2 mg/kg. The note with it: in vivo. The series is classed as ADME, organism-based.
The nature of series [8]: Half life in Sprague-Dawley rat at 1 mg/kg, iv and 2 mg/kg, po. The series is classed as ADME, organism-based. Particulars: in vivo.
Series [9] in a line: Clearance in Sprague-Dawley rat blood at 1 mg/kg, iv and 2 mg/kg, po. The series is classed as ADME, organism-based.
A short description of series [10]: Volume of distribution at steady state in Sprague-Dawley rat at 1 mg/kg, iv and 2 mg/kg, po. The series is classed as ADME, organism-based. Particulars: in vivo, read-out: Vdss.
Series [11] addresses T1, Gamma-secretase (Homo sapiens) (UniProt Q96BI3+Q9NZ42+Q8WW43+P49768+Q92542+P49810). As to the kind of experiment: Inhibition of gamma-secretase in human SHSY5Y cells expressing Swedish variant of APP K595N/M596L assessed as reduction of amyloid beta 42 level after 24 hrs by DELFIA. The series is classed as cell-based. Particulars: SH-SY5Y.
The target of series [12] is T1, Gamma-secretase (Homo sapiens). Put plainly: Inhibition of gamma-secretase in human SHSY5Y cells expressing Swedish variant of APP K595N/M596L assessed as reduction of amyloid beta 40 level after 24 hrs by DELFIA. The series is classed as cell-based. Particulars: SH-SY5Y.
Series [13] has the same target. As to the kind of experiment: Inhibition of gamma-secretase in human SHSY5Y cells expressing Swedish variant of APP K595N/M596L assessed as reduction of total amyloid beta level after 24 hrs by DELFIA. The series is classed as cell-based. Particulars: SH-SY5Y.

Activity calls are given as the source filed them.

As to `COc1cc(-c2ccc(N[C@H](C)c3ccc(F)cc3)nn2)ccc1-n1cnc(C)c1`, the IC50 (as a rule, the point on the concentration scale where inhibition reaches its midpoint) in [1] was greater than 20 µM. Further, the figures for the negative logarithm of the IC50 (pIC50) on Gamma-secretase [2] and on Gamma-secretase [3] were 6.2 and 6, respectively.

For `COc1cc(-c2ccc(N[C@@H](C)c3ccccc3)nn2)ccc1-n1cnc(C)c1`, the IC50 in series [1] is greater than 20 µM. Further, the negative logarithm of the IC50 (pIC50) – broadly, the IC50 on a negative log10 scale, so that one unit is a factor of ten – on Gamma-secretase [2] came to 7.1; at Gamma-secretase [3] it was 6.8.

Consider `CC[C@H](Nc1ccc(-c2ccc(-n3cnc(C)c3)c(OC)c2)nn1)c1ccc(F)cc1`, for which the IC50 in [1] is 10 µM. The negative logarithm of the IC50 (pIC50) on Gamma-secretase [2] was determined as 7.3; on Gamma-secretase [3], 6.9.

Consider `COc1ccc([C@H](C)Nc2ccc(-c3ccc(-n4cnc(C)c4)c(OC)c3)nn2)cc1`, for which the half-inhibitory concentration (IC50) in series [1] is greater than 20 µM. In addition, the pIC50 at Gamma-secretase [2] and at Gamma-secretase [3] was 6.8 each time.

For `COc1cc(-c2ccc(NCc3ccc(F)cc3)nn2)ccc1-n1cnc(C)c1`, in [1], the half-maximal inhibitory concentration (IC50) is greater than 20 µM. Further, the values for the negative logarithm of the IC50 (pIC50) on Gamma-secretase [2] and at Gamma-secretase [3] were 6.5 and 6.2, respectively.

On to `COc1cc(-c2nnc(N[C@@H](C)c3ccc(F)cc3)cc2C)ccc1-n1cnc(C)c1`, for which the IC50 in [1] was 15.8 µM. Also, the pIC50 was determined as 6.7 on Gamma-secretase [2] and 6.3 at Gamma-secretase [3].

As for `COc1cc(-c2cc(C(C)C)c(N[C@@H](C)c3ccc(F)cc3)nn2)ccc1-n1cnc(C)c1`, the results for the negative logarithm of the IC50 (pIC50) at Gamma-secretase [2] and at Gamma-secretase [3] were 7.3 and 7, respectively. In addition, the Activity with CV-1 is greater than 30%.

Turning to `COc1cc(-c2cc(C(F)(F)F)c(N[C@@H](C)c3ccc(F)cc3)nn2)ccc1-n1cnc(C)c1`, the results for the pIC50 on Gamma-secretase [2] and at Gamma-secretase [3] were 7 and 5.6, respectively. In the series on CV-1, the Activity was greater than 30%.

In the case of `COc1cc(-c2ccc(N[C@@H](C)c3ccc(F)cc3)nn2)ccc1-n1cnc(C)c1`, in series [1], the IC50 was greater than 20 µM. Besides, the figures for the pIC50 at Gamma-secretase [2] and on Gamma-secretase [3] were 7.2 and 6.7, respectively.

For `COc1cc(-c2ccc(N[C@H](c3ccc(F)cc3)C(C)(C)O)nn2)ccc1-n1cnc(C)c1`, in [1], the 50% inhibitory concentration (IC50) was 20 µM. For the same compound, the figures for the pIC50 at Gamma-secretase [2] and on Gamma-secretase [3] were 7.4 and 6.8, respectively.

In the case of `COc1cc(-c2ccc(NC(=O)c3ccc(F)cc3)nn2)ccc1-n1cnc(C)c1`, the IC50 in [1] was 1 µM. Also, the pIC50 at Gamma-secretase [2] is 5.6; on Gamma-secretase [3], 4.7.

As for `CCc1cc(-c2ccc(-n3cnc(C)c3)c(OC)c2)nnc1N[C@@H](C)c1ccc(F)cc1`, the pIC50 at Gamma-secretase [2] worked out at 7.2; at Gamma-secretase [3], 6.8. In the series on CV-1, the Activity is greater than 30%.

For the compound `COc1cc(-c2nnc(N[C@@H](C)c3ccc(F)cc3)c(C)c2C)ccc1-n1cnc(C)c1`, the 50% inhibitory concentration (IC50) in [1] is greater than 20 µM. For the same compound, the pIC50 on Gamma-secretase [2] turned out to be 6.5; on Gamma-secretase [3] it was 5.9.

`COc1cc(-c2ccc(N[C@@H](C)c3ccccc3F)nn2)ccc1-n1cnc(C)c1`: in series [1], the IC50 was 10 µM. Moreover, the results for the pIC50 at Gamma-secretase [2] and at Gamma-secretase [3] were 7.3 and 7.1, respectively.

As to `COc1cc(-c2cc(C)c(N[C@@H](C)c3ccc(F)cc3)nn2)ccc1-n1cnc(C)c1` [listing 1 of 2 here], the values for the concentration at 6 h in series [4] and in series [5] were 16 µM and 9.09 µM, respectively. Further, in series [1], the IC50 was 10 µM. The pIC50 amounted to 7.2 at Gamma-secretase [2] and 6.7 at Gamma-secretase [3]. Further, the Activity result was “Toxic” with SH-SY5Y and greater than 20% with Rattus norvegicus. In series [6], the Kp at 6 h worked out at 0.56.

In the case of `COC[C@H](Nc1ccc(-c2ccc(-n3cnc(C)c3)c(OC)c2)nn1)c1ccccc1`, the IC50 in series [1] is greater than 20 µM. For the same compound, the figures for the pIC50 at Gamma-secretase [2] and at Gamma-secretase [3] were 6.8 and 6.5, respectively.

Take `COc1cc(-c2cc(C)c(N[C@@H](C)c3ccc(F)cc3)nn2)ccc1-n1cnc(C)c1.Cl`: the bioavailability (commonly the share of a dose that reaches the circulation, judged against a reference dose that is usually intravenous) in [7] was 98%. Besides, the half-life – broadly, the time needed for the level to fall by half in the phase considered – in series [8] was 3.1 h. Moreover, the clearance in series [9] stood at 5.1 mL/min/kg. Besides, in [10], the Vd came out at 1.4 L/kg.

With `COc1cc(-c2ccc(N[C@@H](C)c3ccc(C(F)(F)F)cc3)nn2)ccc1-n1cnc(C)c1`, the IC50 in series [1] was greater than 20 µM. In addition, the pIC50 on Gamma-secretase [2] worked out at 7.3; at Gamma-secretase [3], 6.9.

As for `COc1cc(-c2cc(C)c(N[C@@H](C)c3ccc(F)cc3)nn2)ccc1-n1cnc(C)c1` [listing 2 of 2 here], the inhibition entry in series [11] and in [12] was “Dose-dependent effect” each time. Further, in series [13], the inhibition result is “Active”.

For the compound `COc1cc(-c2cc(C#N)c(N[C@@H](C)c3ccc(F)cc3)nn2)ccc1-n1cnc(C)c1`, the IC50 in series [1] is 15.8 µM. For the same compound, the pIC50 came to 6.9 on Gamma-secretase [2] and 5.8 at Gamma-secretase [3].

On to `COc1cc(-c2ccc(NC(C)(C)c3ccc(F)cc3)nn2)ccc1-n1cnc(C)c1`, for which the negative-log IC50 (pIC50) at Gamma-secretase [2] is reported as 7; at Gamma-secretase [3], 6.1. Besides, the Activity in the series on CV-1 is greater than 30%.

In the case of `COc1cc(-c2ccc(N[C@@H](C)c3cccc(F)c3)nn2)ccc1-n1cnc(C)c1`, in series [1], the IC50 is greater than 20 µM. The pIC50 at Gamma-secretase [2] is listed as 7.2; on Gamma-secretase [3], 6.9.

The values above are taken from ChEMBL document CHEMBL1795222, “Pyridazine-derived γ-secretase modulators” (Bioorg Med Chem Lett, 2011).
